Laboratory results published in PubChem BioAssay (NCI).
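Cells were grown in 96-well plates and exposed to each compound for 48 hours at five concentrations; endpoints were interpolated linearly between bracketing concentrations, or set to the highest concentration if not reached. TGI denotes the concentration required for complete inhibition of growth.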

Key:
Test in all cases: NCI-60 cell line screen, 48 h
A498 renal = system: A498 renal
LOX IMVI melanoma = system: LOX IMVI melanoma
SN12C renal = system: SN12C renal
OVCAR-5 ovarian = system: OVCAR-5 ovarian
DU-145 prostate = system: DU-145 prostate
SF-268 CNS = system: SF-268 CNS
SK-MEL-2 melanoma = system: SK-MEL-2 melanoma
SK-OV-3 ovarian = system: SK-OV-3 ovarian
OVCAR-4 ovarian = system: OVCAR-4 ovarian
IGROV1 ovarian = system: IGROV1 ovarian
SNB-19 CNS = system: SNB-19 CNS
U251 CNS = system: U251 CNS
PC-3 prostate = system: PC-3 prostate
NCI-H23 lung = system: NCI-H23 lung
HCT-116 colon = system: HCT-116 colon
CAKI-1 renal = system: CAKI-1 renal
EKVX NSCLC = system: EKVX NSCLC
HOP-62 NSCLC = system: HOP-62 NSCLC
HL-60(TB) leukemia = system: HL-60(TB) leukemia
786-0 renal = system: 786-0 renal
NCI-H226 lung = system: NCI-H226 lung
NCI-H460 lung = system: NCI-H460 lung
HT29 colon = system: HT29 colon
UO-31 renal = system: UO-31 renal
TK-10 renal = system: TK-10 renal
MDA-N = system: MDA-N
HOP-92 NSCLC = system: HOP-92 NSCLC
SF-295 CNS = system: SF-295 CNS
CCRF-CEM leukemia = system: CCRF-CEM leukemia
UACC-62 melanoma = system: UACC-62 melanoma
BT-549 breast = system: BT-549 breast
OVCAR-3 ovarian = system: OVCAR-3 ovarian
ACHN renal = system: ACHN renal
RPMI-8226 leukemia = system: RPMI-8226 leukemia
MDA-MB-435 = system: MDA-MB-435
MALME-3M melanoma = system: MALME-3M melanoma
MCF7 breast = system: MCF7 breast
HCC-2998 colon = system: HCC-2998 colon
MDA-MB-231 breast = system: MDA-MB-231 breast
SK-MEL-28 melanoma = system: SK-MEL-28 melanoma
SR leukemia = system: SR leukemia
SW-620 colon = system: SW-620 colon
RXF 393 renal = system: RXF 393 renal
UACC-257 melanoma = system: UACC-257 melanoma
COLO 205 colon = system: COLO 205 colon
SK-MEL-5 melanoma = system: SK-MEL-5 melanoma
K-562 leukemia = system: K-562 leukemia
NCI-H522 lung = system: NCI-H522 lung
A549 NSCLC = system: A549 NSCLC
OVCAR-8 ovarian = system: OVCAR-8 ovarian
M14 melanoma = system: M14 melanoma
HCT-15 colon = system: HCT-15 colon
T-47D breast = system: T-47D breast
SF-539 CNS = system: SF-539 CNS
HS 578T breast = system: HS 578T breast
MOLT-4 leukemia = system: MOLT-4 leukemia
SNB-75 CNS = system: SNB-75 CNS
NCI/ADR-RES ovarian = system: NCI/ADR-RES ovarian
KM12 colon = system: KM12 colon

In the case of `Nc1nc(N)c2c(-c3ccccc3)ccnc2n1`, the TGI (A498 renal) is reported as > 100 µM, the TGI (LOX IMVI melanoma) is reported as > 100 µM and the TGI (SN12C renal) is reported as > 100 µM. For the same compound, the TGI (OVCAR-5 ovarian) was > 100 µM, the TGI (DU-145 prostate) was > 100 µM and the TGI (SF-268 CNS) was > 100 µM. For the same compound, the TGI (SK-MEL-2 melanoma) was > 100 µM, the TGI (SK-OV-3 ovarian) was > 100 µM and the TGI (OVCAR-4 ovarian) was > 100 µM. For the same compound, the TGI (IGROV1 ovarian) was > 100 µM, the TGI (SNB-19 CNS) was > 100 µM and the TGI (U251 CNS) was > 100 µM. The TGI (PC-3 prostate) was > 100 µM, the TGI (NCI-H23 lung) was > 100 µM and the TGI (HCT-116 colon) was > 100 µM. The TGI (CAKI-1 renal) was > 100 µM, the TGI (EKVX NSCLC) was > 100 µM and the TGI (HOP-62 NSCLC) was > 100 µM. The TGI (HL-60(TB) leukemia) was > 100 µM, the TGI (786-0 renal) was > 100 µM and the TGI (NCI-H226 lung) was > 100 µM. For the same compound, the TGI (NCI-H460 lung) was > 100 µM, the TGI (HT29 colon) was > 100 µM and the TGI (UO-31 renal) was > 100 µM. The TGI (TK-10 renal) was > 100 µM, the TGI (MDA-N) was > 100 µM and the TGI (HOP-92 NSCLC) was > 100 µM. The TGI (SF-295 CNS) was > 100 µM, the TGI (CCRF-CEM leukemia) was > 100 µM and the TGI (UACC-62 melanoma) was > 100 µM. The TGI (BT-549 breast) was > 100 µM, the TGI (OVCAR-3 ovarian) was > 100 µM and the TGI (ACHN renal) was > 100 µM. For the same compound, the TGI (RPMI-8226 leukemia) was > 100 µM, the TGI (MDA-MB-435) was > 100 µM and the TGI (MALME-3M melanoma) was > 100 µM. The TGI (MCF7 breast) was > 100 µM, the TGI (HCC-2998 colon) was > 100 µM and the TGI (MDA-MB-231 breast) was > 100 µM. For the same compound, the TGI (SK-MEL-28 melanoma) was > 100 µM, the TGI (SR leukemia) was > 100 µM and the TGI (SW-620 colon) was > 100 µM. For the same compound, the TGI (RXF 393 renal) was > 100 µM, the TGI (UACC-257 melanoma) was > 100 µM and the TGI (COLO 205 colon) was > 100 µM. For the same compound, the TGI (SK-MEL-5 melanoma) was > 100 µM, the TGI (K-562 leukemia) was > 100 µM and the TGI (NCI-H522 lung) was > 100 µM.

`O=[N+]([O-])c1ccc(C2NC(=S)NC3c4cc([N+](=O)[O-])ccc4CCCC23)cc1` (stereo unspecified) was tested, and the TGI (A549 NSCLC) was > 100 µM, the TGI (A498 renal) was > 100 µM and the TGI (OVCAR-8 ovarian) was > 100 µM. For the same compound, the TGI (LOX IMVI melanoma) was > 100 µM, the TGI (SN12C renal) was > 100 µM and the TGI (OVCAR-5 ovarian) was > 100 µM. For the same compound, the TGI (DU-145 prostate) was > 100 µM, the TGI (SF-268 CNS) was > 100 µM and the TGI (SK-MEL-2 melanoma) was > 100 µM. For the same compound, the TGI (M14 melanoma) was > 100 µM, the TGI (SK-OV-3 ovarian) was > 100 µM and the TGI (OVCAR-4 ovarian) was > 100 µM. The TGI (HCT-15 colon) was > 100 µM, the TGI (IGROV1 ovarian) was > 100 µM and the TGI (T-47D breast) was > 100 µM. The TGI (SNB-19 CNS) was > 100 µM, the TGI (U251 CNS) was > 100 µM and the TGI (PC-3 prostate) was > 100 µM. For the same compound, the TGI (NCI-H23 lung) was > 100 µM, the TGI (HCT-116 colon) was > 100 µM and the TGI (CAKI-1 renal) was > 100 µM. For the same compound, the TGI (EKVX NSCLC) was > 100 µM, the TGI (HOP-62 NSCLC) was > 100 µM and the TGI (HL-60(TB) leukemia) was > 100 µM. For the same compound, the TGI (786-0 renal) was > 100 µM, the TGI (SF-539 CNS) was > 100 µM and the TGI (NCI-H226 lung) was > 100 µM. For the same compound, the TGI (NCI-H460 lung) was > 100 µM, the TGI (HS 578T breast) was > 100 µM and the TGI (MOLT-4 leukemia) was > 100 µM. The TGI (HT29 colon) was > 100 µM, the TGI (UO-31 renal) was > 100 µM and the TGI (TK-10 renal) was > 100 µM. The TGI (HOP-92 NSCLC) was 45.5 µM, the TGI (SNB-75 CNS) was 44.2 µM and the TGI (SF-295 CNS) was > 100 µM. For the same compound, the TGI (CCRF-CEM leukemia) was > 100 µM, the TGI (UACC-62 melanoma) was > 100 µM and the TGI (BT-549 breast) was > 100 µM. The TGI (OVCAR-3 ovarian) was > 100 µM, the TGI (ACHN renal) was > 100 µM and the TGI (RPMI-8226 leukemia) was > 100 µM. For the same compound, the TGI (MDA-MB-435) was > 100 µM, the TGI (MALME-3M melanoma) was > 100 µM and the TGI (MCF7 breast) was > 100 µM. For the same compound, the TGI (HCC-2998 colon) was > 100 µM, the TGI (MDA-MB-231 breast) was > 100 µM and the TGI (SK-MEL-28 melanoma) was > 100 µM. For the same compound, the TGI (SR leukemia) was > 100 µM, the TGI (SW-620 colon) was > 100 µM and the TGI (RXF 393 renal) was 45.2 µM. For the same compound, the TGI (NCI/ADR-RES ovarian) was > 100 µM, the TGI (UACC-257 melanoma) was > 100 µM and the TGI (COLO 205 colon) was > 100 µM. The TGI (SK-MEL-5 melanoma) was > 100 µM, the TGI (K-562 leukemia) was > 100 µM and the TGI (KM12 colon) was > 100 µM. For the same compound, the TGI (NCI-H522 lung) was > 100 µM.
